Experimental data reported in patent publication US6737383B1, “Herbicidal oxadiazolidines” (priority 1999, dated 2004).

Tests used:
[1] = tested on: wheat; assay: Test B pre/postemergence wheat; assay type: in vivo, Triticum aestivum
In short: (§1)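 Test chemicals in a non-phytotoxic solvent mixture with surfactant were sprayed preemergence onto planted seeds and postemergence onto plants 2 to 18 cm tall (1- to 4-leaf stage). After twelve to sixteen days in a greenhouse, injury was visually rated against untreated controls from 0 (no effect) to 10 (complete control).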

[2] = tested on: velvetleaf; assay: Test B pre/postemergence velvetleaf; assay type: in vivo, Abutilon theophrasti
In short: as §1

[3] = tested on: crabgrass; assay: Test B pre/postemergence crabgrass; assay type: in vivo, Digitaria sanguinalis
In short: as §1

[4] = tested on: surinam grass; assay: Test B pre/postemergence surinam grass; assay type: in vivo, Brachiaria decumbens
In short: as §1

[5] = tested on: cocklebur; assay: Test B pre/postemergence cocklebur; assay type: in vivo, Xanthium strumarium
In short: as §1

[6] = tested on: rape; assay: Test B pre/postemergence rape; assay type: in vivo, Brassica napus
In short: as §1

[7] = tested on: bedstraw; assay: Test B pre/postemergence bedstraw; assay type: in vivo, Galium aparine
In short: as §1

[8] = tested on: corn; assay: Test B pre/postemergence corn; assay type: in vivo, Zea mays
In short: as §1

[9] = tested on: wild oat; assay: Test B pre/postemergence wild oat; assay type: in vivo, Avena fatua
In short: as §1

[10] = tested on: sugar beet; assay: Test B pre/postemergence sugar beet; assay type: in vivo, Beta vulgaris
In short: as §1

[11] = tested on: blackgrass; assay: Test B pre/postemergence blackgrass; assay type: in vivo, Alopecurus myosuroides
In short: as §1

[12] = tested on: soybean; assay: Test B pre/postemergence soybean; assay type: in vivo, Glycine max
In short: as §1

[13] = tested on: purple nutsedge; assay: Test B pre/postemergence purple nutsedge; assay type: in vivo, Cyperus rotundus
In short: as §1

[14] = Postemergence, Rate 62 g/ha, scale 0 to 10, 0 is no effect, 10 is complete control
[15] = Postemergence, Rate 125 g/ha, scale of 0 to 10 where 0 is no effect and 10 is complete control
[16] = Postemergence, Rate 250 g/ha, scale 0 to 10, 0 no effect, 10 complete control
[17] = Preemergence, Rate 62 g/ha, scale 0 to 10 (0 no effect, 10 complete control)
[18] = Preemergence, Rate 125 g/ha, scale 0 to 10 (0 no effect, 10 complete control)
[19] = Preemergence, Rate 250 g/ha, scale of 0 to 10 where 0 is no effect and 10 is complete control
[20] = Preemergence, Rate 500 g/ha, scale 0 (no effect) to 10 (complete control)
[21] = Rate 500 g/ha, Postemergence, scale 0 to 10, 0 no effect, 10 complete control
[22] = Rate 125 g/ha, Postemergence, scale 0 to 10, 0 no effect, 10 complete control

Cc1ccccc1Cn1c(=O)on(C(=O)N(c2ccc(F)cc2)C(C)C)c1=O [Compound 88]
Wheat plant response rating [1, 14]: 0
Wheat plant response rating [1, 15]: 0
Wheat plant response rating [1, 16]: 0
Wheat plant response rating [1, 17]: 0
Plant response rating, Wheat [1, 18]: 0
Plant response rating, Wheat [1, 19]: 0
Wheat plant response rating [1, 20]: 0
Wheat plant response rating [1, 21]: 0
Velvetleaf plant response rating [2, 14]: 0
Velvetleaf plant response rating [2, 15]: 0
Velvetleaf plant response rating [2, 16]: 0
Velvetleaf plant response rating [2, 17]: 0
Plant response rating, Velvetleaf [2, 18]: 0
Plant response rating, Velvetleaf [2, 19]: 0
Velvetleaf plant response rating [2, 20]: 2
Velvetleaf plant response rating [2, 21]: 0
Crabgrass plant response rating [3, 14]: 0
Crabgrass plant response rating [3, 15]: 0
Crabgrass plant response rating [3, 16]: 9
Crabgrass plant response rating [3, 17]: 5
Plant response rating, Crabgrass [3, 18]: 7
Plant response rating, Crabgrass [3, 19]: 10
Crabgrass plant response rating [3, 20]: 10
Crabgrass plant response rating [3, 21]: 9
B. signalgrass plant response rating [4, 14]: 0
B. signalgrass plant response rating [4, 16]: 0
B. signalgrass plant response rating [4, 17]: 0
Plant response rating, B. signalgrass [4, 18]: 2
Plant response rating, B. signalgrass [4, 19]: 2
B. signalgrass plant response rating [4, 20]: 5
B. signalgrass plant response rating [4, 22]: 2
B. signalgrass plant response rating ([4]; Rate 500 g/ha, Postemergence, scale of 0 to 10 where 0 is no effect and 10 is complete control): 2
Cocklebur plant response rating [5, 14]: 0
Cocklebur plant response rating [5, 15]: 0
Cocklebur plant response rating [5, 16]: 1
Cocklebur plant response rating [5, 17]: 0
Plant response rating, Cocklebur [5, 18]: 0
Plant response rating, Cocklebur [5, 19]: 0
Cocklebur plant response rating [5, 20]: 0
Cocklebur plant response rating [5, 21]: 5
Rape plant response rating [6, 14]: 0
Rape plant response rating [6, 15]: 0
Rape plant response rating [6, 16]: 0
Rape plant response rating [6, 17]: 0
Plant response rating, Rape [6, 18]: 0
Plant response rating, Rape [6, 19]: 0
Rape plant response rating [6, 20]: 0
Rape plant response rating [6, 21]: 3
Bedstraw plant response rating [7, 14]: 3
Bedstraw plant response rating [7, 16]: 9
Bedstraw plant response rating [7, 17]: 0
Plant response rating, Bedstraw [7, 18]: 0
Plant response rating, Bedstraw [7, 19]: 0
Bedstraw plant response rating [7, 20]: 2
Bedstraw plant response rating [7, 22]: 8
Bedstraw plant response rating [7, 21]: 9
Corn plant response rating [8, 14]: 0
Corn plant response rating [8, 15]: 0
Corn plant response rating [8, 16]: 0
Corn plant response rating [8, 17]: 0
Plant response rating, Corn [8, 18]: 0
Plant response rating, Corn [8, 19]: 0
Corn plant response rating [8, 20]: 0
Corn plant response rating [8, 21]: 0
Wild oats plant response rating [9, 14]: 0
Wild oats plant response rating [9, 15]: 0
Wild oats plant response rating [9, 16]: 0
Wild oats plant response rating [9, 17]: 0
Plant response rating, Wild oats [9, 18]: 2
Plant response rating, Wild oats [9, 19]: 2
Wild oats plant response rating [9, 20]: 5
Wild oats plant response rating [9, 21]: 0
Sugarbeets plant response rating [10, 14]: 3
Sugarbeets plant response rating [10, 15]: 5
Sugarbeets plant response rating [10, 16]: 7
Sugarbeets plant response rating [10, 17]: 2
Plant response rating, Sugarbeets [10, 18]: 3
Plant response rating, Sugarbeets [10, 19]: 6
Sugarbeets plant response rating [10, 20]: 8
Sugarbeets plant response rating [10, 21]: 7
Blackgrass plant response rating [11, 14]: 2
Blackgrass plant response rating [11, 15]: 5
Blackgrass plant response rating [11, 16]: 6
Blackgrass plant response rating [11, 17]: 1
Plant response rating, Blackgrass [11, 18]: 4
Plant response rating, Blackgrass [11, 19]: 4
Blackgrass plant response rating [11, 20]: 6
Blackgrass plant response rating [11, 21]: 6
Soybean plant response rating [12, 14]: 1
Soybean plant response rating [12, 15]: 1
Soybean plant response rating [12, 16]: 1
Soybean plant response rating [12, 17]: 0
Plant response rating, Soybean [12, 18]: 0
Plant response rating, Soybean [12, 19]: 0
Soybean plant response rating [12, 20]: 2
Soybean plant response rating [12, 21]: 1
Nutsedge plant response rating [13, 14]: 0
Nutsedge plant response rating [13, 15]: 0
Nutsedge plant response rating [13, 16]: 0
Nutsedge plant response rating [13, 17]: 0
Plant response rating, Nutsedge [13, 18]: 0
Plant response rating, Nutsedge [13, 19]: 0
Nutsedge plant response rating [13, 20]: 0
Nutsedge plant response rating [13, 21]: 0
